Experimental findings from patent US10562898B2, “Substituted benzenesulfonamides as inhibitors of alpha-4 beta-7 integrin activity” (EA PHARMA CO., LTD., priority 2016, dated 2020) are described below.

pIC50: −log10 of the molar value.

This experiment has as its target T1, α4β7 integrin (Homo sapiens, UniProt P13612+P26010).
T1 construct: a cell line RPMI-8866, which is known to express α4β7 integrin; endogenous in cells; host or cells: RPMI-8866 (human B cell line)
T1 sequence (P13612 34-1032): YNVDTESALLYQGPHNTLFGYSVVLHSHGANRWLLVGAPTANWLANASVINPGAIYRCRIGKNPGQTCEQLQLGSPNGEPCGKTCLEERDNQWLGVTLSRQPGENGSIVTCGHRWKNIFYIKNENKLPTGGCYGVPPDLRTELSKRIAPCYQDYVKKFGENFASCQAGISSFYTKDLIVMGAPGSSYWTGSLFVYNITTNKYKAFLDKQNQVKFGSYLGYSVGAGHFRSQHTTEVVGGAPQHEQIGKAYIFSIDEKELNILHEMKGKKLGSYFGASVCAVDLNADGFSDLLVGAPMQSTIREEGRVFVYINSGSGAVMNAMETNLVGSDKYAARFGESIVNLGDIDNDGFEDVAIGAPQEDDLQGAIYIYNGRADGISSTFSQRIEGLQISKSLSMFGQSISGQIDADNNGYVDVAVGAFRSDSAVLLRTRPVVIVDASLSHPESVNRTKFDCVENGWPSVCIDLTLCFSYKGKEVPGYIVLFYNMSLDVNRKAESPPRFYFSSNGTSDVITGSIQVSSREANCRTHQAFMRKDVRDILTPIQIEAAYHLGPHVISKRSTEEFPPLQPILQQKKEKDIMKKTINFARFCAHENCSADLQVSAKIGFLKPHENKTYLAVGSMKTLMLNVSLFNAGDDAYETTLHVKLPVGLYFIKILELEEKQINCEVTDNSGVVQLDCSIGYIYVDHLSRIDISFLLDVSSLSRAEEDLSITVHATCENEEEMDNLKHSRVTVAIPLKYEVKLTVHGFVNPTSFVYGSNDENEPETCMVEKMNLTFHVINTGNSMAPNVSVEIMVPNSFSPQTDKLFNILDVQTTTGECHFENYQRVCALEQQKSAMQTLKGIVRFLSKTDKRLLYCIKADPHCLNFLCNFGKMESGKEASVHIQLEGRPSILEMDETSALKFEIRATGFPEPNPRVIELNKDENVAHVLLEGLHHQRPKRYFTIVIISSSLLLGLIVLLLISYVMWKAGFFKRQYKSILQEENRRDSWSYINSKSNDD
T1 sequence (P26010 20-798): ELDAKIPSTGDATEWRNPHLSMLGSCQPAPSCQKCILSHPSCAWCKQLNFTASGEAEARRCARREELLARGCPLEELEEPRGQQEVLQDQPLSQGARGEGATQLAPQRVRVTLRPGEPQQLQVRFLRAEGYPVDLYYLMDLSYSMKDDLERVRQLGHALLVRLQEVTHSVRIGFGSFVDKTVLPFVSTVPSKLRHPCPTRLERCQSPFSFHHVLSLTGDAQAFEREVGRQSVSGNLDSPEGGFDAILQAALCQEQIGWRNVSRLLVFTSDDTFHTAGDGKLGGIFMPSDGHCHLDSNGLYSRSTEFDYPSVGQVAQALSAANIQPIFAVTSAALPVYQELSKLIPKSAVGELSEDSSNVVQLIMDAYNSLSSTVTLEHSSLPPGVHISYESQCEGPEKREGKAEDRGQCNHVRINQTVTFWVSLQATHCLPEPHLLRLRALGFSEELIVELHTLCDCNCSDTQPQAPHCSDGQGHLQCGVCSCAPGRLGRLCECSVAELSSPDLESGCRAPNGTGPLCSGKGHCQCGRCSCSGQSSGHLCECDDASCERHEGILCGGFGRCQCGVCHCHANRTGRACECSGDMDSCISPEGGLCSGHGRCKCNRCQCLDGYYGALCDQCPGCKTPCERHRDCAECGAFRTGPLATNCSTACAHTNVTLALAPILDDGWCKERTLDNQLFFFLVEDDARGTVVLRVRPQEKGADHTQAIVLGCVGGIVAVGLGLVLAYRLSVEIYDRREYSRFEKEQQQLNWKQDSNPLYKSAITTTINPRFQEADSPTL
Nature of the experiment: MAdCAM-1/α4β7 integrin binding inhibitory activity evaluation test in presence of serum. The class given is cell-based. As to conditions: RPMI-8866 cells, recombinant mouse MAdCAM-1/Fc, 50% human serum; read-out: α4β7 Serum Added IC50. The gist of the method: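 RPMI-8866 human B cells (5×10^5/well) bound to plates coated with recombinant mouse MAdCAM-1/Fc, with compound in DMEM/HEPES/BSA/4 mM MnCl2 containing 50% human serum final, 30 °C for 15–60 min. Bound cells quantified by LDH release (A490); IC50 from binding relative to no-compound wells, duplicate.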
Regarding `Cc1c(C)n(C)c(=O)n(-c2ccc(C[C@H](NC(=O)c3cc(F)c(NS(=O)(=O)c4ccc(-n5ccc(C6CCOCC6)cc5=O)cc4)cc3F)C(=O)O)cc2)c1=O` [Compound A34], the pIC50 was 7.62.

As to `Cc1cn(C)c(=O)n(-c2ccc(C[C@H](NC(=O)c3cc(F)c(NS(=O)(=O)c4ccc(NC(=O)C#CC(C)(C)C)cc4)cc3F)C(=O)O)cn2)c1=O` [Compound A68], the pIC50 is 7.48.

Take `CC(=O)Nc1ccc(S(=O)(=O)Nc2cc(F)c(C(=O)N[C@@H](Cc3ccc(-n4c(=O)c5ccncc5n(C)c4=O)cc3)C(=O)O)cc2F)cc1` [Compound A2]: the negative logarithm of the IC50 (pIC50) was 7.44.

On to `CN1CCc2c(n(C)c(=O)n(-c3ccc(C[C@H](NC(=O)c4cc(F)c(NS(=O)(=O)c5ccc(NC(=O)C(C)(C)C)cc5)cc4F)C(=O)O)cc3)c2=O)C1` [Compound A41], for which the pIC50 was 8.72.

`Cn1c2c(c(=O)n(-c3ccc(C[C@H](NC(=O)c4cc(F)c(NS(=O)(=O)c5ccc(NC(=O)C(C)(C)C)cc5)cc4F)C(=O)O)cn3)c1=O)CCOC2` [Compound A40]: the negative logarithm of the IC50 (pIC50) is 8.37.

`Cc1cn(C)c(=O)n(-c2ccc(C[C@H](NC(=O)c3cc(F)c(NS(=O)(=O)c4ccc5c(NC(=O)C(C)(C)C)c[nH]c5c4)cc3F)C(=O)O)cn2)c1=O` [Compound A74]: the pIC50 was 7.30.

For `Cc1c(C)n(C)c(=O)n(-c2ccc(C[C@H](NC(=O)c3cc(F)c(NS(=O)(=O)c4ccc(N(C)C(=O)C(C)(C)C)cc4)cc3F)C(=O)O)cc2)c1=O` [Compound A35], the negative-log IC50 (pIC50) is 6.22.

With `Cn1c(=O)n(-c2ccc(C[C@H](NC(=O)c3cc(F)c(NS(=O)(=O)c4ccc(NC(=O)C(C)(C)C)cn4)cc3F)C(=O)O)cn2)c(=O)c2ccncc21` [Compound A31], the pIC50 was 8.30.

`CN1CCC(=O)N(c2ccc(C[C@H](NC(=O)c3cc(F)c(NS(=O)(=O)c4ccc(NC(=O)C(C)(C)C)cc4)cc3F)C(=O)O)cn2)C1=O` [Compound A75, (2S)-2-[2,5-difluoro-4-[(4-pivalamidophenyl)sulfonamide]benzamido]-3-[6-(3-methyl-2,6-dioxotetrahydropyrimidin-1(2H)-yl)pyridin-3-yl]propanoic acid]: the negative-log IC50 (pIC50) was 7.80.

As for `Cn1ccc(=O)n(-c2ccc(C[C@H](NC(=O)c3cc(F)c(NS(=O)(=O)c4ccc(NC(=O)C5CCCC5)cc4)cc3F)C(=O)O)cn2)c1=O` [Compound A64], the pIC50 was 7.05.

With `Cc1cc(=O)n(-c2ccc(C[C@H](NC(=O)c3cc(F)c(NS(=O)(=O)c4ccc(NC(=O)C(C)(C)C)cc4)cc3F)C(=O)O)cc2)c(=O)n1C` [Compound A46], the negative-log IC50 (pIC50) was 8.12.

Consider `Cn1c(=O)n(-c2ccc(C[C@H](NC(=O)c3cc(F)c(NS(=O)(=O)c4ccc(NC(=O)C(C)(C)CO)cc4)cc3F)C(=O)O)cc2)c(=O)c2ccncc21` [Compound A18], for which the negative-log IC50 (pIC50) is 8.05.

Regarding `Cc1c(CO)c(=O)n(-c2ccc(C[C@H](NC(=O)c3cc(F)c(NS(=O)(=O)c4ccc(NC(=O)C(C)(C)C)cc4)cc3F)C(=O)O)cc2)c(=O)n1C` [Compound A51], the negative logarithm of the IC50 (pIC50) was 7.89.
